Data from patent US11083735B2, “Methods for treating sleep disorders, sleep disturbances, and related symptoms using aminosterol compositions” (Enterin, Inc., priority 2017, dated 2021).
Several values for one entry are separate records, joined by “and”; a condition that tells them apart may be missing. Equal values may be shown once.

Tests used:
[1] = tested on: patients with PD and constipation; experiment: Phase 2 trial Stage 1 (single escalating dose): prokinetic response (CSBM within 24 hours); format: in vivo, human
Protocol: FIGS. 16A-16B show prokinetic activity of squalamine (ENT-01, a synthetic squalamine salt comprising squalamine as the active ion). […] Patients with baseline CSBM<1 required a higher dose (mean, 192 mg) of squalamine than patients with CSBM≥1 (mean, 120 mg).
Tolerability limits included diarrhea or vomiting.

patients with PD = experiment: Phase 2 trial Stage 2: sleep diary (total sleep time, arm or leg thrashing / RBD); format: in vivo, human
Protocol: FIG. 18 is a chart of total sleep time in relation to squalamine dose. Total sleep time was obtained from the sleep diary by subtracting awake time during the night from total time spent in bed. Total sleep time per night was logged for each patient at baseline, each dosing period and at washout, and the means were determined. The light grey bar represents the baseline value for each cohort at a given dose level and the dark grey bar represents the value for the same cohort at the stated dose of squalamine (ENT-01; Kenterin™). The number of patients represented at each value are: Baseline, 33; 75 mg, 21; 100 mg, 28; 125 mg, 18; 150 mg, 15; 175 mg, 12; 200 mg, 7; 225 mg, 3; 250 mg, 2; washout, 33. P values were as follows: 75 mg, p=0.4; 100 mg, p=0.1; 125 mg, p=0.3; 150 mg, p=0.07; 175 mg, p=0.03; 200 mg, p=0.3; 225 mg, p=0.5; 250 mg, p=0.3; wash-out, p=0.04 (paired t test).
The frequency of arm or leg thrashing reported in the sleep diary diminished progressively from 2.2 episodes/week at baseline to 0 at maximal dose.
(5) Sleep Diary (participants completed a sleep diary on a daily basis throughout the study. The diaries included time into bed and estimated time to sleep as well as wake time and duration during the night.);
Exploratory end-points, in addition to constipation, included for example, (i) depression assessed using the Beck Depression Inventory (BDI-II) (Steer et al. 2000) and Unified Parkinson's Disease Rating Scale (UPDRS); (ii) cognition assessed using the Mini Mental State Examination (MMSE) (Palsteia et al. 2018), Unified Parkinson's Disease Rating Scale (UPDRS), and Trail Making Test (TMT); (iii) sleep and REM-behavior disorder (RBD) using a daily sleep diary, I-Button Temperature Assessment, a REM sleep behavior disorder (RBD) questionnaire (RBDQ) (Stiasny-Kolster et al. 2007), and the UPDRS; (iv) hallucinations assessed using the PD hallucinations questionnaire (PDHQ) (Papapetropoulos et al. 2008), the UPDRS, and direct questioning; (v) fatigue using the Parkinson's Disease Fatigue Scale (PFS-16) and the UPDRS; (vi) motor functions using the UPDRS; and (vii) non-motor functions using the UPDRS.

[2] = tested on: patient with sleeping disorder; experiment: Example 2: patient with sleeping disorder and constipation, oral squalamine, sleep diary and I-button; format: in vivo, human
Protocol: The patient had very significant delay in sleep onset, fragmented sleep, thrashing of arms and legs (RBD) and daytime somnolence. On polysomnography, they had apneic spells up to 17 seconds in duration with an oxygen desaturation as low as 93%. The patient slept no more than 3-4 hours, awakened 3-4 times, and each awakening lasted 30-60 minutes. Medications included clonazepam and laxatives.
Clonazepam and laxatives were discontinued and they were started on 100 mg of squalamine every other day at bedtime. This regimen had no effect on their sleep or constipation. […] They were then switched to 150 mg daily taken in the morning.
The patient's skin temperature was also monitored for fluctuations at the wrist using a temperature sensor (I-button) mounted on a wrist-band. Skin temperature at the wrist increases from about 30° C. during the day to 36° C. at night in normal individuals. This diurnal variation of skin temperature correlates well with sleep-wake cycles. When it reaches 34° C., subjects fall asleep; during the night, if it falls below 34° C., subjects awaken. During the day, skin temperature is below 30° C. and subjects remain awake.
Once the patient's Circadian rhythm was restored, the patient started sleeping better at night and stopped falling asleep during the day.

isolated colons = experiment: Isolated perfused colon, migrating muscular contractions (aged mouse; loperamide in young mouse)
Description: Isolated colons were mounted in an apparatus that permits continuous perfusion through the lumen, and the monitoring of the velocity, frequency and pressure of migrating muscular contractions (MMCs). Similar to the experience in humans, aging in mice is associated with diminished colonic peristaltic activity.
In humans, opiates markedly diminish GI motility and suppress fluid secretion causing constipation. […] When loperamide is introduced into the lumen of a young mouse colonic peristalsis is inhibited. When squalamine is added in presence of continued loperamide perfusion, the dysmotility is overridden.

colons from PD mice = experiment: Isolated colon motility, PD mice (human αSynuclein gene); parameters: species or system mouse
Description: Parkinson's disease is associated with varying degrees of constipation, typically beginning decades before diagnosis, and all too often has a profound negative impact on quality of life. It is believed that the ENS in PD is damaged earlier but by the same processes that damage the neurons of the CNS. In our clinical experience oral administration to several individuals with advanced Parkinson's disease corrected long standing constipation within days of initiation of treatment. We explored whether the human experience could be reproduced in the mouse. In the experiments illustrated below studies of colonic motility were conducted using organs from WT (1 yr old FVB/NJ) or PD mice, in which the murine αSynuclein gene has been excised and replaced by several copies of the human αSynuclein gene driven by the normal murine promoter.
The isolated colon from the PD strain presents a more sluggish peristaltic wave than that from the WT animal (black columns).

[3] = 150 mg daily taken in the morning

CC(C)[C@@H](CC[C@@H](C)[C@H]1CC[C@H]2[C@@H]3[C@H](O)C[C@H]4C[C@@H](NCCCNCCCCN)CC[C@]4(C)[C@H]3CC[C@]12C)OS(=O)(=O)O (single isomer, unassigned; ent-01) [ENT-01]
cumulative response rate ([1]; 25 mg): 25% | cumulative response rate ([1]; 200 mg (maximum)): 80% | increase of total sleep time (patients with PD; 250 mg vs baseline): 18% | Total sleep time (patients with PD; at 250 mg, baseline 7.1): 8.4 h | improvement of arm or leg thrashing frequency (patients with PD; at maximal dose vs baseline): 100% | frequency of arm or leg thrashing reported in the sleep diary (patients with PD; at maximal dose, baseline 2.2): 0 episodes/week | Total sleep time (patients with PD; beyond 125 mg): consistently higher than baseline

CC(C)[C@@H](CC[C@@H](C)[C@H]1CC[C@H]2[C@@H]3[C@H](O)C[C@H]4C[C@@H](NCCCNCCCCN)CC[C@]4(C)[C@H]3CC[C@]12C)OS(=O)(=O)O [squalamine]
effect on sleep or constipation ([2]; 100 mg every other day at bedtime): no effect | time to fall asleep (I-button) ([2]; 100 mg given at night, FIG. 8A): 2.5 h | total sleep per night (I-button) ([2]; 100 mg given at night, FIG. 8A): 3 h | Delay ([2]; 125 mg switch, days 114-118): 45 min | Fragments awake ([2]; 125 mg switch, days 114-118): 60 min | Total hrs sleep ([2]; 125 mg switch, days 114-118): 7.5 h and 6.5 h and 8.0 h | total hours of sleep (I-button) ([2]; 150 mg): 4 to 5 h | Total hrs sleep ([2]; 150 mg daily am dose, Mean row covers all on-treatment days (pre mean 6.2)): 6.0 h | Fragments awake ([2]; 150 mg daily am dose, Mean row covers all on-treatment days (pre mean 90)): 120 min | effect on sleep or constipation ([2]; 150 mg daily at bedtime): without effect | arms and legs thrashing in the night [2, 3]: stopped thrashing | bowels [2, 3]: regularized almost immediately | delay in sleep onset (I-button) ([2]; 150 mg, FIG. 8C): 1 h | delay in sleep onset (I-button) ([2]; 150 mg, FIG. 8D): 0.5 h | Sleep efficiency ([2]; On treatment (Pre-treatment 74)): 82% | Fragments awake during night ([2]; On treatment (Pre-treatment 90)): 56 min | Delay in falling asleep ([2]; On treatment (Pre-treatment 146)): 60 min | diurnal rhythm (I-button, periodogram, FIG. 12) ([2]; several months into treatment): clearly been restored | colonic peristalsis (isolated colons; squalamine into the colonic lumen of the aged mouse): dramatic stimulation of peristalsis | dysmotility caused by loperamide (isolated colons; young mouse colon, squalamine added in presence of continued loperamide perfusion): overridden | speed of the colonic peristaltic wave (colons from PD mice; FIG. 14B): normalizing the PD colon to that of the unstimulated WT mouse | force of peristaltic contractions (colons from PD mice; squalamine added to lumen, FIG. 14A): increases the force of contractions
